PubChem BioAssay (NCI)
“And” between values parts separate entries of the source, which are not always exact repeats. Identical values can stand only once.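 96-well plates; 48 h exposure; 5 concentrations. Endpoints by linear interpolation between flanking doses. Not reached: highest tested concentration assigned. The concentration for 50% growth inhibition is given as GI50. TGI marks complete inhibition of growth.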 *1 amine or outer side, *2 acyl side, *3 side chain or, on linkers, in order; H or OH if unused. Where a SMILES comes first, the peptide text is derived from it. Bridges are numbered along the chain shown (N, C = ends). Roman numbers before positions name the chains, in order. [ ]: non-standard residue; d: D form. Actinocin(9to1) = Cc1c2oc3c(C)ccc(C(=O)[*:1])c3nc-2c(C(=O)[*:2])c(N)c1=O; NMeV = CN[CH](C(=O)O)C(C)C; Sar = CNCC(=O)O

How the values were obtained:
Assay in all cases: growth of human tumour cells (NCI), 48 h
UO-31 renal = system: UO-31 renal
U251 CNS = system: U251 CNS
NCI-H522 lung = system: NCI-H522 lung
SF-295 CNS = system: SF-295 CNS
OVCAR-8 ovarian = system: OVCAR-8 ovarian
SK-OV-3 ovarian = system: SK-OV-3 ovarian
IGROV1 ovarian = system: IGROV1 ovarian
A549 NSCLC = system: A549 NSCLC
ACHN renal = system: ACHN renal
M14 melanoma = system: M14 melanoma

Row | Structure (SMILES) | TGI (UO-31 renal) | TGI (U251 CNS) | TGI (NCI-H522 lung) | TGI (SF-295 CNS) | TGI (OVCAR-8 ovarian) [µM] | TGI (SK-OV-3 ovarian) [µM] | TGI (IGROV1 ovarian) [µM] | TGI (A549 NSCLC) [µM] | GI50 (ACHN renal) [µM] | TGI (ACHN renal) | GI50 (NCI-H522 lung) | GI50 (M14 melanoma) | TGI (M14 melanoma) | GI50 (UO-31 renal) [µM] | GI50 (U251 CNS) [µM] | GI50 (SF-295 CNS) [µM] | GI50 (OVCAR-8 ovarian) [µM] | GI50 (SK-OV-3 ovarian) [µM] | GI50 (IGROV1 ovarian) [µM] | GI50 (A549 NSCLC) [µM]
1 | C#CC[C@@]12CC(=O)C[C@@H]1CCC1(C2)OCCO1 (tested in a mixture with another compound) | > 100 µM | > 100 µM | > 100 µM | > 100 µM | > 100 | > 100 | > 100 | > 100 | – | – | – | – | – | – | – | – | – | – | – | –
2 | CC(C)(C)c1ccc(C(O)CCCN2CCC(C(O)(c3ccccc3)c3ccccc3)CC2)cc1 (stereo unspecified) | – | – | 3.31 µM and 21.2 µM | – | – | – | – | – | 1.67 | 3.03 µM | 1.83 µM and 13.6 µM | 1.7 µM and 13.5 µM | 3.21 µM and 18.4 µM | – | – | – | – | – | – | –
3 | Cc1c2oc3c(C)ccc(C(=O)NC4C(=O)NC(Cc5ccccc5)C(=O)N5CCCC5C(=O)N(C)CC(=O)N(C)C(C(C)C)C(=O)OC4C)c3nc-2c(C(=O)NC2C(=O)NC(Cc3ccccc3)C(=O)N3CCCC3C(=O)N(C)CC(=O)N(C)C(C(C)C)C(=O)OC2C)c(N)c1=O (stereo unspecified) (I: TFP[Sar][NMeV] / II: TFP[Sar][NMeV]; ester I:1-I:C, II:1-II:C; linker I:N-II:N via Actinocin(9to1); configuration not given here) | 0.468 µM and 0.31 µM | 1.06 µM and 1.26 µM | 0.0217 µM | 0.0465 µM and 0.413 µM | 1.53 | 0.524 | 0.0165 | 0.0252 | – | 1.21 µM and 1.98 µM | – | < 0.001 µM | 0.0399 µM and 0.0936 µM | 0.0502 | – | – | – | – | – | –
4 | CN1CCN(Cc2c[nH]c3c2C(=O)c2c(c(O)c4ccccc4c2O)C3=O)CC1 | 32.4 µM | 27.9 µM | 33.8 µM | 35.4 µM | 26 | 55.2 | 23.4 | 25.4 | 11.3 | 23.5 µM | 14.1 µM | 1.79 µM | 5.12 µM | 11.2 | 11.1 | 15 | 6.34 | 28.4 | 3.74 | 10.7
